Data set [1] in a line: Hydrophobicity: retention time during reverse phase HPLC. It is filed as physicochemical. As to conditions: Acquity CSH C18; pH 7.2 buffer/CH3CN gradient; 40° C. The source says: The retention time (RT) during reverse phase HPLC was taken as a measure of hydrophobicity of an N-terminally modified peptide or oligopeptide of the invention, where the connection is: The longer the RT, the more hydrophobic N-terminally modified peptide or oligopeptide. The following running conditions were applied during HPLC analysis:
Buffer B: 70% (v/v) aq. CH3CN

Data set [2] deals with Chymotrypsin. Put plainly: Inhibition of enzymatic degradation of a model GLP-1 (FRET substrate) by chymotrypsin. The note with it: for EC50: read-out: EC50 Chymotrypsin (0.001 mg/ml), 0.001 mg/ml chymotrypsin, 37° C., ± standard error if at least 3 measurements. It counts as biochemical. The source says:
(§1) The use of Förster resonance energy transfer (FRET), also known as fluorescence resonance energy transfer, substrates to monitor activity of proteolytic enzymes is known in the field (for example Anjuere, F. et al. (1993). Biochem J 291 (Pt 3), 869-73).
(§2) Model GLP-1 analogue was designed as FRET substrate by incorporation of 7-Methoxycoumarin-4-acetic acid (MCA) group as the donor chromophore and dinitrophenol group (DNP) as the acceptor chromophore.
(§3) An assay following the increase in fluorescence as a function of time was established in 96 well format using Varioskan Flash Multimode Meter (Thermo Scientific). Each well contained 70 μl of Dulbecco's phosphate buffer saline (Invitrogen catalogue #14190-094), 10 μl of 100 μM GLP-1 FRET substrate, 10 μl of N-terminally acylated peptide or oligopeptide of the invention in varying concentration and 10 μl of a stock solution of an enzyme (chymotrypsin, trypsin, elastase, etc.). The incubations were performed at 37° C. Fluorescence (320 nm excitation wavelength and 405 nm emission wavelength) was measured immediately after addition of the enzyme to the 96 well plate and also every minute for at least the next 30 minutes. The concentration of the enzyme was optimized to allow determination of slopes for the time course of initial fluorescence increase with and without the N-terminally acylated peptides or oligopeptides of the invention. The slopes were determined by linear regression of the linear part of the fluorescence trace (for example, the first 10 min of the reaction). Each assay was performed in duplicate and average of the two traces was included in the calculations. The relative effect of N-terminally acylated peptide or oligopeptides of the invention on enzymatic degradation of GLP-1 FRET substrate was obtained by comparison of the slopes achieved by the same concentration of the N-terminally acylated peptide or oligopeptides. […] This was done by plotting the slopes achieved with different concentrations of the N-terminally acylated peptide or oligopeptides of the invention as a function of their concentrations and fitting the experimental results using, for example, sigmoidal logistic regression (2 parameters, Sigma Plot v 11). Inhibition constants for the interaction between the N-terminally acylated peptide or oligopeptides of the invention and proteolytic enzymes were also obtained by performing the assay described above with varying concentrations of the inhibitor and substrate and analyzing the results, for example, by double reciprocal transformation as known to the person skilled in the art and described for example in Hubalek, F. et al., J. Med. Chem. 47, 1760-1766 (2004).
(§4) The EC50 was determined for the following compounds. EC50±standard error is reported if the results of at least 3 independent measurements were available.

Data set [3] deals with Trypsin. The data set can be described thus: Inhibition of enzymatic degradation of a model GLP-1 (FRET substrate) by trypsin. It counts as biochemical. The note with it: for EC50: read-out: EC50 Trypsin (0.001 mg/ml), 0.001 mg/ml trypsin, 37° C.
Text: as §1, §2, §3, §4

The mark [4] stands for this setting: compound 0.1 mM, buffer containing 8% DMSO.

The results in this text go back to patent US20150038435A1, “N-TERMINALLY MODIFIED OLIGOPEPTIDES AND USES THEREOF” (Novo Nordisk A/S, priority 2012, published 2015).

Starred links: 1 amine or outer side, 2 acyl side, 3 side chain; linkers in the order of their positions; H or OH if unused. Non-standard residues stand in square brackets, D forms with d. *: point of attachment. γGlu = O=C(O)[C@H](CCC(=O)[*:2])N[*:1]; βAsp = O=C(O)[C@H](CC(=O)[*:2])N[*:1]; Myristoyl = CCCCCCCCCCCCCC(=O)*; Lauroyl = CCCCCCCCCCCC(=O)*; Decanoyl = CCCCCCCCCC(=O)*

For “N-dodecanoyl-Ala-Ala-Pro-Tyr-OH [Example 69] (Lauroyl-AAPY-OH; SMILES CCCCCCCCCCCC(=O)N[C@@H](C)C(=O)N[C@@H](C)C(=O)N1CCC[C@H]1C(=O)N[C@@H](Cc1ccc(O)cc1)C(=O)O)”, the “RT (retention time during reverse phase HPLC as a measure of hydrophobicity)” value (from here on “RT”) in data set [1] is 5.79 min. Further, the “Slope of the initial increase in fluorescence obtained during incubation with 0.001 mg/ml Chymotrypsin” value in data set [2] (setting [4]) is reported as 0.43. For the same substance, the “Slope of the initial increase in fluorescence obtained during incubation with 0.001 mg/ml Trypsin” value in data set [3] (setting [4]) is on record as 1.83.

Consider “N-dodecanoyl-Gln-Ala-Pro-Tyr-OH (Lauroyl-QAPY-OH; SMILES CCCCCCCCCCCC(=O)N[C@@H](CCC(N)=O)C(=O)N[C@@H](C)C(=O)N1CCC[C@H]1C(=O)N[C@@H](Cc1ccc(O)cc1)C(=O)O) [Example 103]”, for which the “RT” value in data set [1] came out at 4.92 min. For the same substance, in data set [2] (setting [4]), the “Slope of the initial increase in fluorescence obtained during incubation with 0.001 mg/ml Chymotrypsin” value is 1.13. Moreover, in data set [3] (setting [4]), the “Slope of the initial increase in fluorescence obtained during incubation with 0.001 mg/ml Trypsin” value was 1.78.

In the case of “N-dodecanoyl-Ile-Ala-Pro-Tyr-OH (Lauroyl-IAPY-OH; SMILES CCCCCCCCCCCC(=O)N[C@H](C(=O)N[C@@H](C)C(=O)N1CCC[C@H]1C(=O)N[C@@H](Cc1ccc(O)cc1)C(=O)O)[C@@H](C)CC) [Example 41]”, the “RT” value in data set [1] turned out to be 7.76 min. Moreover, the “Slope of the initial increase in fluorescence obtained during incubation with 0.001 mg/ml Chymotrypsin” value in data set [2] (setting [4]) is listed as 0.84. For the same substance, the “Slope of the initial increase in fluorescence obtained during incubation with 0.001 mg/ml Trypsin” value in data set [3] (setting [4]) came out at 1.96.

Consider “N-dodecanoyl-Ala-Ala-Ser-Tyr-OH (Lauroyl-AASY-OH; SMILES CCCCCCCCCCCC(=O)N[C@@H](C)C(=O)N[C@@H](C)C(=O)N[C@@H](CO)C(=O)N[C@@H](Cc1ccc(O)cc1)C(=O)O) [Example 70]”, for which the “RT” value in data set [1] is 5.43 min. For the same substance, in data set [2] (setting [4]), the “Slope of the initial increase in fluorescence obtained during incubation with 0.001 mg/ml Chymotrypsin” value is 1.50. Also, in data set [3] (setting [4]), the “Slope of the initial increase in fluorescence obtained during incubation with 0.001 mg/ml Trypsin” value is given as 1.45.

On to “N-dodecanoyl-βAla-βAla-Pro-Phe-OH [Example 10]”, for which the “RT” value in data set [1] was 6.04 min. The “Slope of the initial increase in fluorescence obtained during incubation with 0.001 mg/ml Chymotrypsin” value in data set [2] (compound 1 mM) is on record as 0.05. In data set [3] (compound 1 mM), the “Slope of the initial increase in fluorescence obtained during incubation with 0.001 mg/ml Trypsin” value worked out at 3.29.

With “N-dodecanoyl-Ala-Arg-Pro-Tyr-OH (Lauroyl-ARPY-OH; SMILES CCCCCCCCCCCC(=O)N[C@@H](C)C(=O)N[C@@H](CCCNC(=N)N)C(=O)N1CCC[C@H]1C(=O)N[C@@H](Cc1ccc(O)cc1)C(=O)O) [Example 73]”, the “RT” value in data set [1] is given as 5.34 min. Also, the “Slope of the initial increase in fluorescence obtained during incubation with 0.001 mg/ml Chymotrypsin” value in data set [2] (setting [4]) is recorded as 0.08. Further, in data set [3] (setting [4]), the “Slope of the initial increase in fluorescence obtained during incubation with 0.001 mg/ml Trypsin” value was determined as 1.67.

Regarding “N-dodecanoyl-Val-Pro-Tyr-OH [Example 111]”, in data set [1], the “RT” value stood at 7 min. Besides, the “Slope of the initial increase in fluorescence obtained during incubation with 0.001 mg/ml Chymotrypsin” value in data set [2] (setting [4]) was determined as 0.31. For the same substance, the “Slope of the initial increase in fluorescence obtained during incubation with 0.001 mg/ml Trypsin” value in data set [3] (setting [4]) worked out at 1.93.

Consider “N-dodecanoyl-Ala-Ala-Ala-Pro-Phe-OH [Example 18]”, for which the “RT” value in data set [1] was found to be 6.59 min. Further, in data set [2], the EC50 is 167 µM.

For “N-dodecanoyl-γGlu-Ala-Pro-Phe-OH (Lauroyl-[γGlu]APF-OH; SMILES CCCCCCCCCCCC(=O)N[C@@H](CCC(=O)N[C@@H](C)C(=O)N1CCC[C@H]1C(=O)N[C@@H](Cc1ccccc1)C(=O)O)C(=O)O) [Example 22]”, the “RT” value in data set [1] is reported as 4.09 min. In addition, the EC50 in data set [2] is more than 500 µM.

As for “N-decanoyl-Ala-Ala-Pro-Arg-OH (Decanoyl-AAPR-OH; SMILES CCCCCCCCCC(=O)N[C@@H](C)C(=O)N[C@@H](C)C(=O)N1CCC[C@H]1C(=O)N[C@@H](CCCNC(=N)N)C(=O)O) [Example 20]”, the “RT” value in data set [1] was determined as 3.79 min. In addition, the EC50 in data set [2] was more than 500 µM.

For the substance “N-tetradecanoyl-γGlu-βAla-βAla-Pro-Phe-OH [Example 139]”, in data set [1], the “RT” value was found to be 4.95 min. Moreover, the EC50 in data set [2] is more than 500 µM.

For the substance “N-dodecanoyl-γGlu-Ala-Ala-Pro-Arg-OH [Example 25]”, the “RT” value in data set [1] worked out at 3.66 min. The EC50 in data set [2] was more than 500 µM.

For the substance “N-tetradecanoyl-βAla-βAla-βAla-βAla-Pro-Phe-OH [Example 137]”, the “RT” value in data set [1] amounted to 7.7 min. The EC50 in data set [2] was more than 500 µM.

For the substance “N-dodecanoyl-Ala-Ala-Pro-Tyr-OH [Example 17] (Lauroyl-AAPY-OH; SMILES CCCCCCCCCCCC(=O)N[C@@H](C)C(=O)N[C@@H](C)C(=O)N1CCC[C@H]1C(=O)N[C@@H](Cc1ccc(O)cc1)C(=O)O)”, the “RT” value in data set [1] came out at 5.83 min.

On to “N-tetradecanoyl-bAsp-Ala-Ala-Pro-Phe-OH [Example 164]”, for which the EC50 in data set [2] was 54 µM; in data set [3], 343 µM.

As for “N-hexadecanoyl-γGlu-Ala-Ala-Pro-Phe-OH [Example 32]”, the figures for the EC50 in data set [2] and in data set [3] were 29 ± 4 µM and 66 µM, respectively.

Take “N-tetradecanoyl-Leu-Ala-Ala-Pro-Tyr-OH [Example 159]”: the results for the EC50 in data set [2] and in data set [3] were 35 µM and 122 µM, respectively.

In the case of “N-tetradecanoyl-D-His-D-Ala-D-Arg-D-Pro-D-Phe-OH [Example 195]”, the EC50 turned out to be 17 µM in data set [2] and 7 µM in data set [3].

Turning to “N-tetradecanoyl-Lys-Ala-Arg-Pro-Phe-OH [Example 193]”, the EC50 in data set [2] is 90 µM; in data set [3] it was 169 µM.

For “N-icosanoyl-γGlu-Ala-Pro-Phe-OH (icosanoyl-[γGlu]APF-OH) [Example 151]”, the EC50 in data set [2] worked out at 9 µM; in data set [3], 13 µM.

For the substance “N-tetradecanoyl-bAsp-Ala-Pro-Phe-OH (Myristoyl-[βAsp]APF-OH; SMILES CCCCCCCCCCCCCC(=O)N[C@@H](CC(=O)N[C@@H](C)C(=O)N1CCC[C@H]1C(=O)N[C@@H](Cc1ccccc1)C(=O)O)C(=O)O) [Example 165]”, the figures for the EC50 in data set [2] and in data set [3] were 154 µM and 120 µM, respectively.

On to “N-tetradecanoy-γGlu-His-Ala-Ala-Pro-Tyr-OH [Example 191]”, for which the EC50 was determined as 136 µM in data set [2] and 177 µM in data set [3].

Turning to “N-dodecanoyl-Thr-Ala-Ala-Pro-Phe-OH [Example 172]”, the results for the EC50 in data set [2] and in data set [3] were 132 µM and 401 µM, respectively.

For the substance “N-dodecanoyl-Ile-Ala-Ala-Pro-Tyr-OH [Example 40]”, the “Slope of the initial increase in fluorescence obtained during incubation with 0.001 mg/ml Chymotrypsin” value in data set [2] (setting [4]) worked out at 0.41. Besides, in data set [3] (setting [4]), the “Slope of the initial increase in fluorescence obtained during incubation with 0.001 mg/ml Trypsin” value stood at 1.31.

Turning to “N-dodecanoyl-Gly-Ala-Pro-Tyr-OH [Example 37]”, the “Slope of the initial increase in fluorescence obtained during incubation with 0.001 mg/ml Chymotrypsin” value in data set [2] (setting [4]) stood at 0.66. Also, the “Slope of the initial increase in fluorescence obtained during incubation with 0.001 mg/ml Trypsin” value in data set [3] (setting [4]) is 1.78.

With “N-dodecanoyl-γGlu-Ala-Pro-Arg-OH (Lauroyl-[γGlu]APR-OH; SMILES CCCCCCCCCCCC(=O)N[C@@H](CCC(=O)N[C@@H](C)C(=O)N1CCC[C@H]1C(=O)N[C@@H](CCCNC(=N)N)C(=O)O)C(=O)O) [Example 21]”, the “RT” value in data set [1] turned out to be 3.66 min. Also, in data set [2], the EC50 is more than 500 µM.

In the case of “N-tetradecanoyl-Trp-Pro-Tyr-OH [Example 153]”, the EC50 was determined as 38 µM in data set [2] and 43 µM in data set [3].

With “N-dodecanoyl-Ala-Ala-Pro-Phe-Pro-OH [Example 24]”, the “RT” value in data set [1] was 6.88 min. Further, the EC50 in data set [2] came to 379 µM.

For “N-hexadecanoyl-Glu-Ala-Ala-Pro-D-Phe-OH [Example 144]”, the EC50 in data set [2] turned out to be 40 µM; in data set [3] it was 72 µM.
